In ChEMBL document CHEMBL1201862, “PubChem BioAssay data set” (2004):
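1) Cells in 96-well plates. 2) Compound, 48 h, 5 concentrations. 3) Linear interpolation between surrounding doses. 4) Unreached endpoint = highest concentration. Here, GI50 denotes the concentration required for 50% inhibition of growth.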 Active and inactive are the calls of the source. Cut-off read from the data, not from the text of the source: active = GI50 up to about 1.1 µM and inactive = higher.

Tests used:
Test in all cases: NCI tumour cell line growth inhibition, 48 h
A498 = tested on: A498
A549 = tested on: A549
CAKI-1 = tested on: CAKI-1
CCRF-CEM = tested on: CCRF-CEM
COLO 205 = tested on: COLO 205
DLD-1 = tested on: DLD-1
DMS-114 = tested on: DMS-114
DMS-273 = tested on: DMS-273
EKVX = tested on: EKVX
HCC 2998 = tested on: HCC 2998
HCT-116 = tested on: HCT-116
HCT-15 = tested on: HCT-15
HL-60 = tested on: HL-60
HOP-18 = tested on: HOP-18
HOP-62 = tested on: HOP-62
HOP-92 = tested on: HOP-92
HT-29 = tested on: HT-29
IGROV-1 = tested on: IGROV-1
K562 = tested on: K562
KM-20L2 = tested on: KM-20L2
KM12 = tested on: KM12
LOX IMVI = tested on: LOX IMVI
M19-MEL = tested on: M19-MEL
MCF7 = tested on: MCF7
MOLT-4 = tested on: MOLT-4
Malme-3M = tested on: Malme-3M
NCI-H226 = tested on: NCI-H226
NCI-H23 = tested on: NCI-H23
NCI-H460 = tested on: NCI-H460
NCI-H522 = tested on: NCI-H522
NCI/ADR-RES = tested on: NCI/ADR-RES
OVCAR-3 = tested on: OVCAR-3
OVCAR-4 = tested on: OVCAR-4
OVCAR-5 = tested on: OVCAR-5
OVCAR-8 = tested on: OVCAR-8
RPMI-8226 = tested on: RPMI-8226
RXF 393 = tested on: RXF 393
SF-268 = tested on: SF-268
SF-295 = tested on: SF-295
SF-539 = tested on: SF-539
SK-MEL-28 = tested on: SK-MEL-28
SK-MEL-2 = tested on: SK-MEL-2
SK-MEL-5 = tested on: SK-MEL-5
SK-OV-3 = tested on: SK-OV-3
SN12C = tested on: SN12C
SNB-19 = tested on: SNB-19
SNB-75 = tested on: SNB-75
SNB-78 = tested on: SNB-78
SW-620 = tested on: SW-620
U-251 = tested on: U-251
UACC-257 = tested on: UACC-257
UACC-62 = tested on: UACC-62
UO-31 = tested on: UO-31
XF498 = tested on: XF498
786-0 = tested on: 786-0
ACHN = tested on: ACHN
LXFL 529 = tested on: LXFL 529
M14 = tested on: M14
TK-10 = tested on: TK-10

c1ccc2cc3c(cc2c1)OP1(Oc2cccc4cccnc24)(O3)Oc2cc3ccccc3cc2O1
GI50 (A498): 18.2 µM (inactive)
GI50 (A549): 5.9 µM (inactive)
GI50 (CAKI-1): 4.88 µM (inactive)
GI50 (CCRF-CEM): 0.984 µM (active)
GI50 (COLO 205): 6.32 µM (inactive)
GI50 (DLD-1): 4.2 µM (inactive)
GI50 (DMS-114): 1.79 µM (inactive)
GI50 (DMS-273): 3.49 µM (inactive)
GI50 (EKVX): 3.37 µM (inactive)
GI50 (HCC 2998): 8.59 µM (inactive)
GI50 (HCT-116): 3.24 µM (inactive)
GI50 (HCT-15): 3.05 µM
GI50 (HL-60): 1.63 µM (inactive)
GI50 (HOP-18): 9.48 µM (inactive)
GI50 (HOP-62): 21 µM (inactive)
GI50 (HOP-92): 3.57 µM (inactive)
GI50 (HT-29): 2.9 µM (inactive)
GI50 (IGROV-1): 5.36 µM (inactive)
GI50 (K562): 2.04 µM (inactive)
GI50 (KM-20L2): 3.39 µM (inactive)
GI50 (KM12): 5.31 µM (inactive)
GI50 (LOX IMVI): 3.72 µM (inactive)
GI50 (M19-MEL): 9.89 µM (inactive)
GI50 (MCF7): 1.13 µM (inactive)
GI50 (MOLT-4): 1.57 µM (inactive)
GI50 (Malme-3M): 7.21 µM (inactive)
GI50 (NCI-H226): 9.89 µM (inactive)
GI50 (NCI-H23): 2.71 µM (inactive)
GI50 (NCI-H460): 2.52 µM (inactive)
GI50 (NCI-H522): 2.39 µM (inactive)
GI50 (NCI/ADR-RES): 1.28 µM (inactive)
GI50 (OVCAR-3): 1.58 µM (inactive)
GI50 (OVCAR-4): 3.61 µM (inactive)
GI50 (OVCAR-5): 4.43 µM (inactive)
GI50 (OVCAR-8): 3.56 µM (inactive)
GI50 (RPMI-8226): 1.07 µM (active)
GI50 (RXF 393): 7.29 µM (inactive)
GI50 (SF-268): 4.81 µM (inactive)
GI50 (SF-295): 4.67 µM (inactive)
GI50 (SF-539): 6.15 µM (inactive)
GI50 (SK-MEL-28): 15.8 µM (inactive)
GI50 (SK-MEL-2): 7.66 µM (inactive)
GI50 (SK-MEL-5): 3.17 µM (inactive)
GI50 (SK-OV-3): 34.7 µM (inactive)
GI50 (SN12C): 14.8 µM (inactive)
GI50 (SNB-19): 24.3 µM (inactive)
GI50 (SNB-75): 18.6 µM (inactive)
GI50 (SNB-78): 26.4 µM (inactive)
GI50 (SW-620): 2.81 µM (inactive)
GI50 (U-251): 6.85 µM (inactive)
GI50 (UACC-257): 2.69 µM (inactive)
GI50 (UACC-62): 3.05 µM (inactive)
GI50 (UO-31): 5.01 µM (inactive)
GI50 (XF498): 3.71 µM (inactive)

CCOC(=O)C[n+]1ccc2c([nH]c3cc(OC)ccc32)c1C
GI50 (A498): > 81.5 µM (inactive)
GI50 (A549): > 100 µM (inactive)
GI50 (CAKI-1): > 100 µM (inactive)
GI50 (CCRF-CEM): > 96.2 µM (inactive)
GI50 (COLO 205): > 71.6 µM (inactive)
GI50 (DLD-1): > 100 µM (inactive)
GI50 (DMS-114): > 83.2 µM (inactive)
GI50 (DMS-273): > 100 µM (inactive)
GI50 (EKVX): > 100 µM (inactive)
GI50 (HCC 2998): > 100 µM (inactive)
GI50 (HCT-116): 61 µM (inactive)
GI50 (HCT-15): > 100 µM
GI50 (HL-60): > 75.7 µM (inactive)
GI50 (HOP-18): > 100 µM (inactive)
GI50 (HOP-62): > 78.3 µM (inactive)
GI50 (HOP-92): > 70.3 µM (inactive)
GI50 (HT-29): > 100 µM (inactive)
GI50 (IGROV-1): > 100 µM (inactive)
GI50 (K562): > 100 µM (inactive)
GI50 (KM-20L2): > 65.2 µM (inactive)
GI50 (KM12): > 100 µM (inactive)
GI50 (LOX IMVI): 71.8 µM (inactive)
GI50 (M19-MEL): > 100 µM (inactive)
GI50 (MCF7): > 95.5 µM (inactive)
GI50 (MOLT-4): > 67 µM (inactive)
GI50 (Malme-3M): > 100 µM (inactive)
GI50 (NCI-H226): 36.8 µM (inactive)
GI50 (NCI-H23): > 100 µM (inactive)
GI50 (NCI-H460): > 88.1 µM (inactive)
GI50 (NCI-H522): 68.2 µM (inactive)
GI50 (NCI/ADR-RES): > 100 µM (inactive)
GI50 (OVCAR-3): > 79.1 µM (inactive)
GI50 (OVCAR-4): > 100 µM (inactive)
GI50 (OVCAR-5): > 100 µM (inactive)
GI50 (OVCAR-8): > 87.1 µM (inactive)
GI50 (RPMI-8226): > 100 µM (inactive)
GI50 (RXF 393): > 100 µM (inactive)
GI50 (SF-268): > 100 µM (inactive)
GI50 (SF-295): 69.2 µM (inactive)
GI50 (SF-539): > 100 µM (inactive)
GI50 (SK-MEL-28): > 100 µM (inactive)
GI50 (SK-MEL-2): > 100 µM (inactive)
GI50 (SK-MEL-5): > 77.8 µM (inactive)
GI50 (SK-OV-3): > 100 µM (inactive)
GI50 (SN12C): > 81.5 µM (inactive)
GI50 (SNB-19): > 100 µM (inactive)
GI50 (SNB-75): > 100 µM (inactive)
GI50 (SNB-78): > 100 µM (inactive)
GI50 (SW-620): > 100 µM (inactive)
GI50 (U-251): > 77.4 µM (inactive)
GI50 (UACC-257): > 100 µM (inactive)
GI50 (UACC-62): > 100 µM (inactive)
GI50 (UO-31): > 39.4 µM (inactive)
GI50 (XF498): 25.9 µM (inactive)

CCOC(=O)NC(=O)c1cn(CCCOC(=O)NCCCCCCNC(=O)OCCCn2cc(C(=O)NC(=O)OCC)c(=O)[nH]c2=O)c(=O)[nH]c1=O
GI50 (786-0): 20 µM (inactive)
GI50 (A498): 22.8 µM (inactive)
GI50 (A549): > 100 µM (inactive)
GI50 (ACHN): 18.7 µM (inactive)
GI50 (CAKI-1): 11.9 µM (inactive)
GI50 (CCRF-CEM): 5.4 µM (inactive)
GI50 (COLO 205): 19.8 µM (inactive)
GI50 (DLD-1): 31.3 µM (inactive)
GI50 (DMS-114): 15.3 µM (inactive)
GI50 (DMS-273): 30.7 µM (inactive)
GI50 (EKVX): > 100 µM (inactive)
GI50 (HCC 2998): 20 µM (inactive)
GI50 (HCT-116): 35.1 µM (inactive)
GI50 (HCT-15): 28.2 µM
GI50 (HL-60): 16.7 µM (inactive)
GI50 (HOP-18): 82.8 µM (inactive)
GI50 (HOP-62): 40.1 µM (inactive)
GI50 (HOP-92): 24.3 µM (inactive)
GI50 (HT-29): 63.4 µM (inactive)
GI50 (IGROV-1): 41.9 µM (inactive)
GI50 (K562): 7.67 µM (inactive)
GI50 (KM-20L2): 50 µM (inactive)
GI50 (LOX IMVI): 43.1 µM (inactive)
GI50 (LXFL 529): 57.4 µM (inactive)
GI50 (M14): 20.4 µM (inactive)
GI50 (M19-MEL): 31.9 µM (inactive)
GI50 (MOLT-4): 36.3 µM (inactive)
GI50 (NCI-H23): > 10 µM (inactive)
GI50 (NCI-H460): 77.4 µM (inactive)
GI50 (OVCAR-3): 17.4 µM (inactive)
GI50 (OVCAR-4): 7.4 µM (inactive)
GI50 (OVCAR-8): 31.3 µM (inactive)
GI50 (RPMI-8226): 14.1 µM (inactive)
GI50 (RXF 393): > 10 µM (inactive)
GI50 (SF-295): 22.5 µM (inactive)
GI50 (SF-539): 18.5 µM (inactive)
GI50 (SK-MEL-28): 28.3 µM (inactive)
GI50 (SK-MEL-5): 37.5 µM (inactive)
GI50 (SK-OV-3): 66.1 µM (inactive)
GI50 (SN12C): 47.6 µM (inactive)
GI50 (SNB-19): 28.6 µM (inactive)
GI50 (SNB-75): 23.3 µM (inactive)
GI50 (SNB-78): 36.7 µM (inactive)
GI50 (SW-620): 26 µM (inactive)
GI50 (TK-10): 29.8 µM (inactive)
GI50 (U-251): 18.1 µM (inactive)
GI50 (UACC-257): 19.2 µM (inactive)
GI50 (UACC-62): 20.1 µM (inactive)
